Test results as given in patent publication US12319655B2, “RAF kinase inhibitors and methods of use thereof” (Deciphera Pharmaceuticals, LLC, priority 2021, dated 2025).
pIC50: −log10 of the molar value.

Columns and labels:
Assay type in all cases: cell-based
H2405 cells = test: H2405 Cell Proliferation Assay (2); details: Homo sapiens, NCI-H2405
Description: H2405 Cell Proliferation Assay (2)
H2405 cells (catalog #CRL-5994) are obtained from the American Type Culture Collect (ATTC, Manassas, VA). Briefly, cells were grown in RPMI 1640 supplemented with 5% characterized fetal bovine serum (Invitrogen, Carlsbad, CA) and 1% Penicillin/Streptomycin/L-Glutamine at 37° C., 5% CO2, and 95% humidity. Cells are expanded until reaching 70-95% confluency at which point they are sub-cultured or harvested for assay use. A serial dilution of test compound is dispensed into a 384-well black clear bottom plate in triplicate. Seven hundred fifty cells are added per well in 50 μL complete growth medium in the 384-well plate. Plates are incubated for 67-72 h at 37° C., 5% CO2, and 95% humidity. At the end of the incubation, 10 μL of a 440 μM solution of resazurin (Sigma, St. Louis, MO) in PBS is added to each well of the plate and plates are incubated for an additional 5-6 h at 37° C., 5% CO2, and 95% humidity. Plates are read on a Synergy2 or equivalent reader (Biotek, Winooski VT) using an excitation of 540 nm and an emission of 600 nm. Data is analyzed using Prism software (GraphPad, San Diego, CA) to calculate IC50 values

A375 cells = test: A375 Cell Proliferation Assay (1); details: Homo sapiens, A-375
Outline: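 Resazurin fluorescence (excitation 540 nm, emission 600 nm, after a further 5-6 h) gave IC50s from triplicate compound dilution series.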

Miapaca-2 cells = test: MiaPaca-2 Cell Proliferation Assay (1); details: Homo sapiens, MIA PaCa-2, single agent, read-out: MiaPaca2 (1) IC50
Outline: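 Resazurin was added after compound exposure and incubated 5-6 h, then fluorescence read at 540 nm excitation and 600 nm emission to give IC50.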

Structure (SMILES) | pIC50 (H2405 cells) | pIC50 (A375 cells) | pIC50 (Miapaca-2 cells)
CNC(=N)c1cc(-c2cc(-c3cc(NC(=O)c4ccnc(C(C)(C)F)c4)ccc3C)ccn2)ccn1 [Example 452] | 6.30 to 7.00 | – | –
COC(=O)Nc1cc(-c2cncc(-c3cc(NC(=O)c4ccnc(C(C)(C)F)c4)ccc3C)c2)ncn1 [Example 425] | – | ≥ 7.00 | –
COC(=O)Nc1cc(-c2cccc(-c3cc(NC(=O)Cn4cc(C(C)C)nn4)cnc3C)c2)ccn1 [Example 415] | – | 5.00 to 6.00 | –
Cc1ncc(NC(=O)c2ccnc(C(C)(C)C#N)c2)cc1-c1cncc(-c2cc(NC(=O)C3CC3)ncn2)c1 [Example 410] | – | ≥ 7.00 | 5.00 to 6.00
Cc1cc(F)c(NC(=O)c2ccnc(C(C)(C)F)c2)cc1-c1cncc(-c2cc(NC(=O)C3CC3)ncn2)c1 [Example 423] | – | ≥ 7.00 | –
CNC(=O)c1cc(-c2cc(-c3cc(NC(=O)c4ccnc(C(C)(C)F)c4)cc(F)c3F)ccn2)ccn1 [Example 478] | ≥ 7.00 | – | –
CNC(=O)c1cc(-c2cc(-c3cc(NC(=O)c4ccnc(C(C)(C)F)c4)ccc3C)cnn2)ccn1 [Example 473] | 6.30 to 7.00 | – | –
Cc1cc(F)c(NC(=O)c2ccnc(C(C)(C)C#N)c2)cc1-c1cncc(-c2cc(NC(=O)C3CC3)ncn2)c1 [Example 424] | – | ≥ 7.00 | –
CNC(=O)c1cc(-c2cc(-c3cc(NC(=O)c4ccnc(C(C)(C)F)c4)ccc3C(F)(F)F)ccn2)ccn1 [Example 471] | 5.00 to 6.00 | – | –
CNC(=O)c1cc(-c2cncc(-c3cc(NC(=O)c4ccnc(C(C)(C)F)c4)c(F)cc3C)c2)ccn1 [Example 408] | – | 6.30 to 7.00 | –
Cc1ncc(NC(=O)c2ccnc(C(C)(C)F)c2)cc1-c1cncc(-c2cc(NC(=O)C3CC3)ncn2)c1 [Example 406] | – | ≥ 7.00 | 6.00 to 6.30
CNC(=O)c1cc(-c2cc(-c3cc(NC(=O)c4ccnc(C(C)C)c4)cnc3C)ccn2)ccn1 [Example 465] | 6.30 to 7.00 | – | –
Cc1ccc(NC(=O)c2ccnc(C(C)(C)F)c2)cc1-c1cncc(-c2cc(N)ncn2)c1 [Example 411] | – | 6.00 to 6.30 | 5.00 to 6.00
Cc1ncc(NC(=O)c2ccnc(C(C)(C)F)c2)cc1-c1cncc(-c2ccnc(NC(=O)C3CC3)c2)c1 [Example 433] | – | ≥ 7.00 | 6.00 to 6.30
Cc1ccc(NC(=O)c2ccnc(C(F)F)c2)cc1-c1cncc(-c2cc(NC(=O)C3CC3)ncn2)c1 [Example 429] | – | ≥ 7.00 | –
Cc1ccc(NC(=O)c2cc(C3CC3)on2)cc1-c1cncc(-c2cc(NC(=O)C3CC3)ncn2)c1 [Example 421] | – | ≥ 7.00 | 5.00 to 6.00
Cc1ccc(NC(=O)c2ccnc(C(C)(F)F)c2)cc1-c1cncc(-c2cc(NC(=O)C3CC3)ncn2)c1 [Example 419] | – | ≥ 7.00 | 6.30 to 7.00
COC(=O)Nc1cc(-c2cncc(-c3cc(NC(=O)c4ccnc(C5(C#N)CC5)c4)ccc3C)c2)ncn1 [Example 405] | – | ≥ 7.00 | 6.00 to 6.30
CNC(=O)c1cc(-c2cc(-c3cc(F)cc(NC(=O)c4ccnc(C(C)(C)F)c4)c3F)ccn2)ccn1 [Example 475] | 5.00 to 6.00 | – | –
COc1ccc(NC(=O)c2ccnc(C(C)(C)C#N)c2)cc1-c1cccc(-c2cc(NC(=O)C3CC3)ncn2)c1 [Example 438] | – | ≥ 7.00 | 5.00 to 6.00
Cc1ncc(NC(=O)c2ccnc(C(C)(C)F)c2)cc1-c1ccnc(-c2ccnc(NC(=O)C3CC3)c2)c1 [Example 454] | ≥ 7.00 | – | –
Cc1cc(-c2cc(NC(=O)c3ccnc(C(C)(C)F)c3)ccc2C)cc(-c2ccnc(C#N)c2)n1 [Example 483] | 5.00 to 6.00 | – | –
COC(=O)Nc1cc(-c2cc(-c3cc(NC(=O)c4ccnc(C(C)(C)F)c4)ccc3C)nc(C)n2)ccn1 [Example 416] | – | 6.30 to 7.00 | 6.00 to 6.30
CNC(=O)c1cc(-c2nccc(-c3cc(NC(=O)c4ccnc(C(C)(C)F)c4)c(F)cc3C)n2)ccn1 [Example 427] | – | 6.30 to 7.00 | 5.00 to 6.00
CNC(=O)c1cc(-c2cc(-c3cc(NC(=O)c4ccnc(C(C)(C)F)c4)ccn3)ccn2)ccn1 [Example 481] | 5.00 to 6.00 | – | –
Cc1ccc(NC(=O)c2ccnc(C(C)(C)C#N)c2)cc1-c1cncc(-c2cc(N)ncn2)c1 [Example 422] | – | 5.00 to 6.00 | –

Structure (SMILES) | pIC50 (H2405 cells) | pIC50 (A375 cells) | pIC50 (Miapaca-2 cells)
Cc1cc(F)c(NC(=O)c2ccnc(C(C)(C)C#N)c2)cc1-c1cncc(-c2ccnc(NC(=O)C3CC3)c2)c1 [Example 418] | – | ≥ 7.00 | 6.30 to 7.00
Cc1ncc(NC(=O)c2ccnc(C3(C#N)CC3)c2)cc1-c1ccnc(-c2ccnc(NC(=O)C3CC3)c2)c1 [Example 461] | ≥ 7.00 | – | –
CNC(=O)c1cc(-c2cc(-c3cc(NC(=O)c4ccnc(C(C)(C)F)c4)ccc3C)nc(C)n2)ccn1 [Example 428] | – | 6.30 to 7.00 | –
COC(=O)Nc1cc(-c2cncc(-c3cc(NC(=O)c4ccnc(C(C)(C)F)c4)ccc3C)c2)ccn1 [Example 435] | – | ≥ 7.00 | 6.00 to 6.30
Cc1ccc(NC(=O)c2ccnc(C3(C#N)CC3)c2)cc1-c1ccnc(-c2ccnc(NC(=O)C3CC3)c2)c1 [Example 457] | ≥ 7.00 | – | –
Cc1ccc(NC(=O)c2ccnc(C(C)(F)F)c2)cc1-c1ccnc(-c2ccnc(NC(=O)C3CC3)c2)c1 [Example 459] | ≥ 7.00 | – | –
COC(=O)Nc1cc(-c2cccc(-c3cc(NC(=O)c4ccnc(C(C)(C)F)c4)cnc3C)c2)ncn1 [Example 404] | – | 6.30 to 7.00 | –
Cc1ccc(NC(=O)c2cnn(C3CC3)c2)cc1-c1cncc(-c2cc(NC(=O)C3CC3)ncn2)c1 [Example 430] | – | 6.30 to 7.00 | 5.00 to 6.00
CNC(=O)c1cc(-c2cc(-c3cc(NC(=O)c4ccnc(C(C)(C)C#N)c4)ccc3OC)ccn2)ccn1 [Example 437] | – | 5.00 to 6.00 | 5.00 to 6.00
CNC(=O)c1cc(-c2cc(-c3cc(NC(=O)c4ccnc(C5CC5)c4)ccc3C)ccn2)ccn1 [Example 460] | 6.30 to 7.00 | – | –
Cc1ccc(NC(=O)c2ccnc(C(C)(C)F)c2)cc1-c1ccnc(-c2ccnc(C(=O)NCCO)c2)c1 [Example 448] | 6.30 to 7.00 | – | –
Cc1ncc(NC(=O)c2ccnc(C(C)(F)F)c2)cc1-c1ccnc(-c2ccnc(NC(=O)C3CC3)c2)c1 [Example 466] | 6.30 to 7.00 | – | –
Cc1ccc(NC(=O)c2ccnc(C(C)(C)F)c2)cc1-c1cncc(-c2ccnc(NC(=O)C3CC3)c2)c1 [Example 417] | – | ≥ 7.00 | 6.00 to 6.30
CNC(=O)c1cc(-c2cc(-c3cc(NC(=O)c4ccnc(C(C)(C)F)c4)ccc3C)c(C)cn2)ccn1 [Example 472] | 6.30 to 7.00 | – | –
COC(=O)Nc1cc(-c2cncc(-c3cc(NC(=O)c4ccnc(C(C)(C)C#N)c4)ccc3C)c2)ncn1 [Example 414] | – | ≥ 7.00 | 6.30 to 7.00
CNC(=O)c1cc(-c2cc(-c3cc(NC(=O)c4cnnc(C(F)(F)F)c4)ccc3C)ccn2)ccn1 [Example 477] | 5.00 to 6.00 | – | –
Cc1ccc(NC(=O)c2ccnc(C(C)C)c2)cc1-c1cncc(-c2cc(NC(=O)C3CC3)ncn2)c1 [Example 434] | – | ≥ 7.00 | 6.30 to 7.00
Cc1ccc(NC(=O)c2cn(C(C)C)nn2)cc1-c1cncc(-c2cc(NC(=O)C3CC3)ncn2)c1 [Example 412] | – | ≥ 7.00 | 6.00 to 6.30
CNC(=O)c1cc(-c2cc(-c3cc(NC(=O)c4ccnc(C(C)(C)F)c4)ccc3C)ncn2)ccn1 [Example 474] | ≥ 7.00 | – | –
Cc1ccc(NC(=O)c2cc(C(C)(C)C)on2)cc1-c1cncc(-c2cc(NC(=O)C3CC3)ncn2)c1 [Example 431] | – | ≥ 7.00 | 5.00 to 6.00
Cc1ncc(NC(=O)c2ccnc(C(C)(C)C#N)c2)cc1-c1cccc(-c2cnc3ccccn23)c1 [Example 407] | – | 5.00 to 6.00 | –
Cc1ccc(NC(=O)c2cc(C3CC3)n(C)n2)cc1-c1nccc(-c2ccnc(NC(=O)C3CC3)c2)n1 [Example 436] | – | 6.30 to 7.00 | 5.00 to 6.00
COC(=O)Nc1cc(-c2cnnc(-c3cc(NC(=O)c4cn(C(C)C)nn4)ccc3C)c2)ccn1 [Example 409] | – | 5.00 to 6.00 | –
CNC(=O)c1cc(-c2cncc(-c3cc(NC(=O)c4ccnc(C(C)(C)F)c4)ccc3C)c2)ccn1 [Example 413] | – | ≥ 7.00 | 5.00 to 6.00
Cc1ccc(NC(=O)c2ccnc(C(C)(C)C#N)c2)cc1-c1cncc(-c2cc(NC(=O)C(C)C)ncn2)c1 [Example 420] | – | ≥ 7.00 | –
Cc1ccc(NC(=O)c2ccnc(C(C)(C)F)c2)cc1-c1cncc(-c2ccnc3c2CC(=O)N3)c1 [Example 432] | – | 6.00 to 6.30 | –
